Assays:
[1] = tested on: Ovcar 3 ovarian carcinoma tumor xenograft
Experimental: (§3) Athymic nude mice were purchased from Harlan-Sprague-Dawley. The animals were housed in microisolated cases under positive air pressure and all manipulations and drug treatments were performed in a laminar flow cabinet. Tumor cells were grown under the above tissue culture conditions. Cell suspensions in RPMI medium were injected S./C. Treatment was started one day after inoculation by i.p. injection of 400 μl drug solutions. Tumors were measured 3 times weekly in two dimensions, using calipers and tumor volume as calculated using the formula (V=w^2 ×L×(3.142).
The tumor model was generated from an ATTC Ovcar 3 carcinoma cell line that was maintained under standard cell proliferation conditions, viz. 37° C., 5% carbon dioxide in sterile air. Each cohort was comprised of eight randomly chosen female athymic nude mice, for a total population size of twenty four. Hemocytometer counted cells, suspended in Hanks medium (Gibco, Grand Island N.Y.) were implanted S.C. (10^6 cells in 0.4 mL per mouse). Solid tumor growth was measured on each third day. Equimolar amounts of the test compounds (1.0 mM, 400 μL) were injected i.p. on days 1, 3, 5, 7, 9, and 11 using the following media:
(.quadrature.): Control, saline in 5× distilled water (D5W) […]

[2] = tested on: SK-Mel-28 melanoma cells; test: XTT dye binding cytotoxicity assay, SK-Mel-28; type: cell-based; details: Homo sapiens; SK-Mel-28, melanoma; 72 h; read-out: IC50
Experimental: (§1) All cell lines described herein were obtained from the ATCC and maintained in media formulations as recommended by the supplier. The cell lines were tested for mycoplasma contamination prior to incubation at 37° C. in 5% carbon dioxide. Normal human dermal fibroblasts, peripheral blood lymphoblasts and mammary epithelial cells were obtained from Clonogenic Cor., San Diego, Calif. and were maintained under the above incubation conditions in special media provided by the supplier.
(§2) Antiproliferative activities of the onium salts were determined using the XTT dye binding assay. Cells were harvested with trypsin/EDTA (Irvine Scientific), washed, resuspended in the appropriate medium, and counted in a hemocytometer using Trypan Blue to determine viability. Then 10^4 cells/well were added to 96 well microtiter plates and incubated for 24 hours before addition of drug at concentrations in the range of 10^-4 to 10^-13 molar by direct addition from DMSO solutions. After 72 hours, XTT binding dye was added and incubation was continued for 4 hours. The inhibition of cell proliferation was quantified using a Molecular Devices Microplate Reader. The absorbance of XTT was measured at […]. The concentration of drug which inhibited growth of cells by 50% was calculated from duplicated determinations.

[3] = tested on: tumor cell lines; test: Cytotoxicity, summary over tumor cell lines (XTT); type: cell-based, human and murine; details: on average
Experimental: Antiproliferative activities of the onium salts were determined using the XTT dye binding assay. Cells were harvested with trypsin/EDTA (Irvine Scientific), washed, resuspended in the appropriate medium, and counted in a hemocytometer using Trypan Blue to determine viability. […] After 72 hours, XTT binding dye was added and incubation was continued for 4 hours. The inhibition of cell proliferation was quantified using a Molecular Devices Microplate Reader. […] The concentration of drug which inhibited growth of cells by 50% was calculated from duplicated determinations.

[4] = tested on: U-2511 CNS cancer cells; test: XTT dye binding cytotoxicity assay, U-2511; type: cell-based; details: Homo sapiens; U-2511, CNS cancer; 72 h; read-out: IC50
Experimental: as §1, §2

[5] = Stability in water, assay medium and storage solution; type: physicochemical
From the text: used and differing ultraviolet absorption maxima between the prodrug and the drug, the stability was easily assayed using UV detection. In all the ensuing studies, the only degradation products detected were the taxoids and the pyridinone that results from the hydrolysis of the onium salts. In water, these compounds show surprising stability for up to weeks depending upon the storage conditions. […] The fraction of ethyl acetated extractable material was between 18 and 23% for all onium salts and 95% for the present compounds.
FIG. 2 illustrates the results of GTP induced polymerization and calcium chloride induced depolymerization of tubulin in the presence of taxol and the 2'- and 7-MPA substituted derivatives.

[6] = tested on: RPMI-7666 blood lymphoblasts; test: XTT dye binding cytotoxicity assay, RPMI-7666; type: cell-based; details: Homo sapiens; RPMI-7666, blood lymphoblasts (untransformed); 72 h; read-out: IC50
Experimental: as §1, §2

[7] = Comparative toxicities (lethality) in mice; details: in vivo
[8] = tested on: CHO Chinese hamster ovary cells; test: XTT dye binding cytotoxicity assay, CHO; type: cell-based; details: Cricetulus griseus; CHO, Chinese hamster ovary (untransformed); 72 h; read-out: IC50
Experimental: as §1, §2

[9] = Toxicity and survival in vivo (tumor bearing nude mice)
[10] = tested on: intact Molt-4 cells; test: Competition binding of tritiated compounds to intact Molt-4 cells; design: species or system human
Experimental: The competition by nonradioactive taxol or c-2'-MPA-taxol for the binding of 1×10^-9 M tritiated compounds by intact Molt-4 cells is illustrated in FIG. 3. Tritiated taxol (Moravek Corp.) was treated with 2-fluoropyridiunium tosylate according to the method of Nicolaou et al. to yield the C-2'-MPT-^3 H-taxol. (Angew. Chem., Int. Ed. 1994: vol. 34, pp. 1583-1587.) Six well plates were incubated with 10^6 Molt-4 cells in 50 mM phosphate buffered saline (PBS) or PRPMI media to which 10^-9 M of the radiolabeled taxol or taxol onium salt was added together with increasing concentrations of nonradiolabeled compound. After 30 minutes, the cells were centrifuged, washed with PBS and 1% SDS was added. […] Alternatively, the cells may be lysed by sonication.

[11] = tested on: HT-29 colon carcinoma cells; test: XTT dye binding cytotoxicity assay, HT-29; type: cell-based; details: Homo sapiens; HT-29, colon carcinoma; 72 h; read-out: IC50
Experimental: as §1, §2

[12] = tested on: A549 lung adenocarcinoma tumor xenograft; test: Human lung adenocarcinoma A549 xenograft in nude mice; details: 1.0 mM, 400 μL i.p. days 1, 3, 5, 7, 9, 11
Experimental: as §3
The tumor model was generated from A549 cell line, an ATTC that was maintained under standard cell proliferation conditions (37° C., 5% carbon dioxide in sterile air). Each cohort was comprised of six randomly chosen female athymic nude mice, for a total population size of twenty four mice. Hemocytometer counted cells, suspended in Hanks mediun (Gibco, Grand Island N.Y.) were implated S.C. (10^6 cells in 0.4 mL per mouse). Solid tumor growth was measured on each third day. Equimolar amounts of the test compounds (1.0 mM, 400 μL) were injected i.p. on days 1, 3, 5, 7, 9, and 11 using the following media:
(Δ): Control, saline in 5× distilled water (5 DW)
(.smallcircle.): Taxol (18.0 mg/kg of animal weight or approximately 1,260 mg/m^2) suspended in Cremaphor/D5W […]

[13] = tested on: human tumor xenografts; test: In vivo antitumor effect (human tumor xenografts in nude mice)
[14] = tested on: PC-3 prostate carcinoma tumor xenograft; test: PC-3 prostate tumor xenograft in nude mice
[15] = tested on: HL-60 promyelocytic leukemia cells; test: XTT dye binding cytotoxicity assay, HL-60; type: cell-based; details: Homo sapiens; HL-60, promyelocytic leukemia; 72 h; read-out: IC50
Experimental: as §1, §2

[16] = Plasma stability and prodrug reversion (ethyl acetate extraction, HPLC); details: human, plasma
[17] = tested on: 786-0 renal cell carcinoma cells; test: XTT dye binding cytotoxicity assay, 786-0; type: cell-based; details: Homo sapiens; 786-0, renal cell carcinoma; 72 h; read-out: IC50
Experimental: as §1, §2

[18] = tested on: M-24 metastatic melanoma cells; test: XTT dye binding cytotoxicity assay, M-24; type: cell-based; details: Homo sapiens, M24; M-24, melanoma-metastatic; 72 h; read-out: IC50
Experimental: as §1, §2

[19] = tested on: UCLA-P3 lung carcinoma cells; test: XTT dye binding cytotoxicity assay, UCLA-P3; type: cell-based; details: Homo sapiens, UCLA P-3, 72 h
Experimental: as §1, §2

[20] = tested on: L-1210 leukemia cells; test: XTT dye binding cytotoxicity assay, L-1210; type: cell-based, mouse; details: L1210; L-1210, mouse leukemia; 72 h; read-out: IC50
Experimental: as §1, §2

[21] = tested on: PC-3 prostate carcinoma cells; test: XTT dye binding cytotoxicity assay, PC-3; type: cell-based; details: Homo sapiens, 72 h
Experimental: as §1, §2

[22] = tested on: SK-N-SH neuroblastoma cells; test: XTT dye binding cytotoxicity assay, SK-N-SH; type: cell-based; details: Homo sapiens, neuroblastoma, 72 h, read-out: IC50
Experimental: as §1, §2

[23] = tested on: A-549 lung carcinoma cells; test: XTT dye binding cytotoxicity assay, A-549; type: cell-based; details: Homo sapiens, A549; A-549, lung carcinoma; 72 h; read-out: IC50
Experimental: as §1, §2

## CC(=O)O[C@H]1C(=O)[C@@]2(C)[C@H]([C@H](OC(=O)c3ccccc3)[C@]3(O)C[C@H](OC(=O)[C@H](Oc4cccc[n+]4C)[C@@H](NC(=O)c4ccccc4)c4ccccc4)C(C)=C1C3(C)C)[C@]1(OC(C)=O)CO[C@@H]1C[C@@H]2O [Compound 2]
[1]; 1.0 mM, 400 μL i.p. days 1, 3, 5, 7, 9, 11
  tumor growth inhibition, Ovcar-3: complete inhibition of tumor growth
[1]; in vivo
  survival of animals, Ovcar-3: 100%
[2]
  IC50: 87.9 nM
[3]
  cytotoxicity relative to the C-7-isomer (3): about 10 fold
[4]
  IC50: 860 nM
[5]; 1-2% Tween #80 or Tween #20 with or without ethyl alcohol
  storage stability: stable and may stored without significant loss
[5]; HPLC analysis
  stability under the assembly-disassembly conditions: completely stable
[6]
  IC50: 131 nM
[7]
  in vivo toxicity relative to taxol or taxotere: much less toxic in vivo than taxol or taxotere
[7]; mouse
  Toxicity: minimal toxicity
  lethality: no lethality
[8]
  IC50: 214 nM
[9]; Table II, in vivo
  Toxicity: low
[9]; at end of experiments
  % survival: 100%
[9]; nude mice
  in vivo tolerance / toxicity in words: well tolerated, showing no visible toxic side effects and no significant weight loss
[10]; calculated from slopes of linear portions of curves in FIG. 3, read-out: binding constant
  Kd: 3000 nM
[10]; relative to parent taxol
  affinity in competition assays of intact cells, in words: three orders of magnitude below that of the parent taxol
[10]; relative to taxol
  lower specific binding affinity than taxol: approximately 1000 fold
[11]
  IC50: 1.94 nM
[12]
  tumor growth inhibition, A549: inhibited tumor growth nearly completely
[13]
  in vivo antitumor efficacy in words: produced tumor regression with a high percentage of animals being free of measurable tumor masses at the end of the experiments
[14]; 1.0 mM, 400 μL i.p., established tumors
  antitumor activity, PC-3: regression of established tumors
[14]; at termination, after 24 days
  complete remission with no palpable tumor mass, PC-3: 5 out of 8 animals
[15]
  IC50: 0.25 nM
[16]
  half-life: 2.4 min
  recovery: 21%
[17]
  IC50: 27.4 nM
[18]
  IC50: 0.35 nM
[19]
  IC50: 2.44 nM
[20]
  IC50: 12.8 nM
[21]
  IC50: 6.47 nM
[22]
  IC50: 3.19 nM
[23]
  IC50: 152 nM

From patent US5731334A, “Method for treating cancer using taxoid onium salt prodrugs” (priority 1995, dated 1998)
